Assay results published in paper PMC10891214, “Effects of food and ethnicity on the pharmacokinetics of venadaparib, a next-generation PARP inhibitor, in healthy Korean, Caucasian, and Chinese male subjects” (Investigational New Drugs, 2023).

Assays:
[1] = tested on: poly(ADP-ribose) formation; parameters: method as in PMID 36808277, PMID 24162931, PMID 33657415; details: cited from earlier work
cytochrome P450 3A4 = tested on: cytochrome P450 3A4; parameters: method as in data on file; details: in vitro phenotyping study; ref data on file; cited from earlier work
PARP2 = tested on: PARP2; parameters: method as in PMID 36808277; details: cited from earlier work
PARP = tested on: PARP; parameters: method as in PMID 36808277, PMID 24162931, PMID 33657415; details: cited from earlier work
PARP5 = tested on: PARP5; parameters: method as in PMID 36808277; details: cited from earlier work
PARP1 = tested on: PARP1; parameters: method as in PMID 36808277; details: cited from earlier work
[2] = parameters: method as in data on file (NCT03317743); details: ref data on file (NCT03317743), cited from earlier work
[3] = tested on: patient-derived xenograft; parameters: method as in PMID 36808277; details: patient-derived xenograft mouse model; cited from earlier work
[4] = Pharmacokinetics after a single oral administration of venadaparib 80 mg (fasted or fed state) in healthy male subjects; type: in vivo, human; details: for AUCinf / AUClast / CL/F / Cmax / Vd/F / t1/2 / Tmax: 80 mg single oral; for AUCinf / AUClast / CL/F / Cmax / Vd/F / t1/2: mean ± SD; for Tmax: median (minimum–maximum); for AUCinf geometric mean ratio (90% confidence interval) / AUClast geometric mean ratio (90% confidence interval) / Cmax geometric mean ratio (90% confidence interval): fed to fasted state
Method: A randomized, open-label, single-dose, two-sequence, and two-period crossover study was conducted with 12 Korean and 12 Caucasian subjects. Subjects in each ethnic group were randomly assigned to one of the two sequences at a ratio of 1:1 (Fig. 1). The subjects were orally administered 80 mg of venadaparib in each treatment period (fasted or fed state), following an overnight fast of at least 10 h. There was a seven-day washout between the two treatment periods. In the fed state, the subjects consumed an entire high-fat meal (total of 800–1000 kcal, fat of 500–600 kcal) within 20 min and were subsequently administered the study drug with 240 mL of water 30 min after the start of the meal. An open-label, single-dose study was conducted on 12 Chinese subjects who received 80 mg of venadaparib only in the fasted state (Fig. 1).
Based on the PK results of venadaparib in a previous study (NCT03317743), serial blood samples for the PK analysis of venadaparib were collected at 0 (pre-dose), 0.25, 0.5, 1, 2, 3, 4, 6, 8, 10, 12, 24, 36, 48, and 72 h post-dose for all treatment and ethnic groups. The blood samples were collected in a K2-ethylenediaminetetraacetic acid (EDTA) vacutainer, centrifuged at 4 ℃ and 3000 rpm for 10 min, and stored at − 70 ℃ until analysis.
Plasma concentrations of venadaparib were determined using validated high-performance liquid chromatography (Exion LC, AB Sciex) coupled with mass spectrometry (Triple Quad 5500+, AB Sciex). Venadaparib as an analyte and olaparib as the internal standard were separated using a Gemini 3 μm NX-C18 110 Å (100 × 3 mm) column (Phenomenex, CA, USA) at 40 ℃. The mobile phase comprised 0.1% formic acid in distilled water and 100% acetonitrile at a flow rate of 0.3 mL/minute. Venadaparib and olaparib were detected with a turbo-ion spray in positive ionization mode at an m/z transition of 407.2 → 70.0 and 435.2 → 281.1, respectively.
The calibration curve for venadaparib ranged from 5 to 5000 μg/L, with precision and accuracy ranging from 1.89 to 4.00% and 92.98 to 102.80%, respectively. For the quality control sample data of venadaparib, the precision and accuracy ranged from 4.38 to 5.18% and 96.75 to 102.59%, respectively.
The PK parameters of venadaparib were calculated by a non-compartmental method using Phoenix WinNonlin software version 8.3.4 (Certara, NJ, USA). The area under the plasma concentration-time curve (AUC) was determined using the linear-up log-down trapezoidal method. The primary PK parameters were Cmax and AUC from time zero to the last measurable time point (AUClast) for comparison between the exposures to the effects of food and ethnicity. The following secondary PK parameters were calculated: AUC from time zero to infinity (AUCinf), time to reach Cmax (Tmax), t1/2, apparent total clearance (CL/F), and apparent volume of distribution (Vd/F).
Statistical analyses were conducted using SAS software version 9.4 (SAS Institute Inc., NC, USA). The primary PK parameters in the fed and fasted states were compared by estimating the geometric mean ratios and 90% confidence intervals using a linear mixed-effects model. The model included the sequence, period, and treatment as fixed effects, and the subject nested within the sequence as a random effect. Analysis of variance (ANOVA) tests were conducted to assess possible differences in the values of the primary PK parameters among the ethnic groups in the fasted state.

PARP3 = tested on: PARP3; parameters: method as in PMID 36808277; details: cited from earlier work
[5] = tested on: cancer cell lines with BRCA mutations; parameters: method as in PMID 36808277; details: cited from earlier work
[6] = Caucasian, fasted state (N = 12)

O=C(c1cc(Cc2n[nH]c(=O)c3ccccc23)ccc1F)N1CC(CNC2CC2)C1 [venadaparib]
Activity of inhibiting poly(ADP-ribose) formation, relative to talazoparib [1]: comparable | Enzyme primarily metabolizing the drug (cytochrome P450 3A4): cytochrome P450 3A4 | IC50 compared with those of olaparib (PARP2): similar | Activity of trapping PARP, relative to talazoparib (PARP): comparable | IC50 compared with those of olaparib (PARP5): higher | IC50 compared with those of olaparib (PARP1): similar | Mean elimination half-life (t1/2) ([2]; Korean patients with advanced solid tumors, 2–240 mg/day): 7 to 13 h | Safety and tolerability of multiple three-week administrations ([2]; dose range 2–240 mg/day, Korean patients): safe and well-tolerated | Relationship of systemic exposure to dose ([2]; dose range 2–240 mg/day): dose-proportional | Tumor growth inhibition rate [3]: 131.0–135.2% | AUCinf [4, 6]: 14202.62 ± 4352.38 ng·h/mL | AUClast [4, 6]: 14091.32 ± 4285.15 ng·h/mL | CL/F [4, 6]: 6.10 ± 1.73 L/h | Cmax [4, 6]: 2392.29 ± 464.48 ng/mL | Vd/F [4, 6]: 72.52 ± 18.25 L | t1/2 [4, 6]: 9.32 ± 4.98 h | Tmax [4, 6]: 0.50 (0.50–2.00) h | AUCinf ([4]; Caucasian, fed state (N = 12)): 13752.20 ± 4522.49 ng·h/mL | AUClast ([4]; Caucasian, fed state (N = 12)): 13557.03 ± 4401.60 ng·h/mL | CL/F ([4]; Caucasian, fed state (N = 12)): 6.33 ± 1.78 L/h | Cmax ([4]; Caucasian, fed state (N = 12)): 1894.30 ± 602.49 ng/mL | Vd/F ([4]; Caucasian, fed state (N = 12)): 124.29 ± 71.28 L | t1/2 ([4]; Caucasian, fed state (N = 12)): 14.16 ± 7.16 h | Tmax ([4]; Caucasian, fed state (N = 12)): 2.00 (1.00–4.00) h | AUCinf geometric mean ratio (90% confidence interval) ([4]; Caucasian, 80 mg): 0.96 (0.9074–1.0260) | AUClast geometric mean ratio (90% confidence interval) ([4]; Caucasian, 80 mg): 0.96 (0.9017–1.0186) | Cmax geometric mean ratio (90% confidence interval) ([4]; Caucasian, 80 mg): 0.77 (0.6871–0.8609) | Decrease of Cmax in the fed state compared with the fasted state ([4]; Caucasians, 80 mg): 23% | AUCinf ([4]; Chinese, fasted state (N = 12)): 14981.87 ± 4276.66 ng·h/mL | AUClast ([4]; Chinese, fasted state (N = 12)): 14878.51 ± 4254.97 ng·h/mL | CL/F ([4]; Chinese, fasted state (N = 12)): 5.84 ± 2.02 L/h | Cmax ([4]; Chinese, fasted state (N = 12)): 2390.12 ± 576.02 ng/mL | Vd/F ([4]; Chinese, fasted state (N = 12)): 53.23 ± 20.51 L | t1/2 ([4]; Chinese, fasted state (N = 12)): 6.95 ± 4.18 h | Tmax ([4]; Chinese, fasted state (N = 12)): 1.00 (0.50–2.00) h | AUCinf ([4]; Korean, fasted state (N = 12)): 12453.18 ± 3565.66 ng·h/mL | AUClast ([4]; Korean, fasted state (N = 12)): 12347.13 ± 3514.30 ng·h/mL | CL/F ([4]; Korean, fasted state (N = 12)): 6.92 ± 1.95 L/h | Cmax ([4]; Korean, fasted state (N = 12)): 2165.59 ± 446.08 ng/mL | Vd/F ([4]; Korean, fasted state (N = 12)): 83.84 ± 48.70 L | t1/2 ([4]; Korean, fasted state (N = 12)): 9.06 ± 6.08 h | Tmax ([4]; Korean, fasted state (N = 12)): 0.50 (0.50–2.00) h | AUCinf ([4]; Korean, fed state (N = 12)): 13108.90 ± 5771.31 ng·h/mL | AUClast ([4]; Korean, fed state (N = 12)): 12972.02 ± 5734.25 ng·h/mL | CL/F ([4]; Korean, fed state (N = 12)): 6.95 ± 2.29 L/h | Cmax ([4]; Korean, fed state (N = 12)): 1835.01 ± 637.11 ng/mL | Vd/F ([4]; Korean, fed state (N = 12)): 104.18 ± 57.31 L | t1/2 ([4]; Korean, fed state (N = 12)): 10.80 ± 5.10 h | Tmax ([4]; Korean, fed state (N = 12)): 2.00 (0.50–4.00) h | AUCinf geometric mean ratio (90% confidence interval) ([4]; Korean, 80 mg): 1.02 (0.9126–1.1360) | AUClast geometric mean ratio (90% confidence interval) ([4]; Korean, 80 mg): 1.02 (0.9088–1.1339) | Cmax geometric mean ratio (90% confidence interval) ([4]; Korean, 80 mg): 0.82 (0.7457–0.9094) | Reduction of peak concentrations after a high-fat meal ([4]; Koreans and Caucasians, 80 mg): approximately 20% | Decrease of Cmax in the fed state compared with the fasted state ([4]; Koreans, 80 mg): 18% | PK profiles among the Korean, Caucasian, and Chinese subjects ([4]; fasted state, 80 mg): comparable | Effect of the high-fat meal on overall systemic exposure ([4]; fed vs fasted state, 80 mg): not significantly affected | IC50 compared with those of olaparib (PARP3): higher | Antitumor potency, fold higher than that of olaparib [5]: 40–440 fold
